Among the data in patent US8394969B2, “Cyclic benzimidazole derivatives useful as anti-diabetic agents” (Merck Sharp & Dohme Corp., priority 2008, dated 2013) are Emax and EC50 values, retold here.

Structures are written as SMILES. Where only a bound is given, the exact number is not on record here.

This assay deals with recombinant human AMPK complex 1 (containing α1β1γ1) (Homo sapiens, UniProt Q13131+Q9Y478). Kind of assay: […] (in vitro AMPK activation assay). The format is biochemical. The conditions noted are these: recombinant human AMPK complex 1 (α1β1γ1); for Emax: basal activity subtracted, read-out: % Maximum AMP Activation of human AMPK Complex 1; for EC50: read-out: EC50.
recombinant human AMPK complex 1 (containing α1β1γ1), sequence (Q13131 whole entry): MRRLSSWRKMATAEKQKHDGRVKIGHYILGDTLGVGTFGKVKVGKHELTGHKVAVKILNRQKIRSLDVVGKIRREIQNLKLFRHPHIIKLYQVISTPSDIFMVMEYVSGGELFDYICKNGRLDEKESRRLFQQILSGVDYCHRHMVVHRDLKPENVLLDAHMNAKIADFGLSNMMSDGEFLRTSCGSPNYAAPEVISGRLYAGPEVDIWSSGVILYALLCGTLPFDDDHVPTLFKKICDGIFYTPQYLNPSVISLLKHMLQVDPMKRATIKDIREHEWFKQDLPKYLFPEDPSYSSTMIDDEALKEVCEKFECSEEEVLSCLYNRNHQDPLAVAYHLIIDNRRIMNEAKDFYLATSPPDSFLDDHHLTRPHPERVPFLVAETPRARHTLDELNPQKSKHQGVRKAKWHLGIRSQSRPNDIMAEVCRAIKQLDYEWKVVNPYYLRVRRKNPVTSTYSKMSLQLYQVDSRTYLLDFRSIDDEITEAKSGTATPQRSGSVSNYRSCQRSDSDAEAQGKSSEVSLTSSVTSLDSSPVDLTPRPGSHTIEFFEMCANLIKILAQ
recombinant human AMPK complex 1 (containing α1β1γ1), sequence (Q9Y478 whole entry): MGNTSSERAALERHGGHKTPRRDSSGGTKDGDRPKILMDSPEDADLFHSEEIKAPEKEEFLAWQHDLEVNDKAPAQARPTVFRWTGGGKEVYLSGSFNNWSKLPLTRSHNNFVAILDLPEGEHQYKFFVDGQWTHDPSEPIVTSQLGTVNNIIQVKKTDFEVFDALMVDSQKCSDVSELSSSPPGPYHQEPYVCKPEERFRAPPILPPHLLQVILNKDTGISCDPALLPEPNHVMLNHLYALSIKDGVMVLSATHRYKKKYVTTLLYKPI
recombinant human AMPK complex 1 (containing α1β1γ1), sequence (P54619 whole entry partner): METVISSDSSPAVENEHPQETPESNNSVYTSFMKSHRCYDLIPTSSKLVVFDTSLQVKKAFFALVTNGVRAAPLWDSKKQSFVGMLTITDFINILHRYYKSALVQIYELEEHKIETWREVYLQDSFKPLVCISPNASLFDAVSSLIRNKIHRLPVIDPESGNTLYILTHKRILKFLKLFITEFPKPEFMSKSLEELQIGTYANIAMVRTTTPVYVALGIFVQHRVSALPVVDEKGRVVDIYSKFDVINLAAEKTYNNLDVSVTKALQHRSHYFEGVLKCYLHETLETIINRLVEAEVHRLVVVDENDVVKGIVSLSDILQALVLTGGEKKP

As for `COC(=O)c1cc(Oc2nc3cc(-c4ccc(-c5ccccc5Cl)cc4)c(Cl)cc3[nH]2)ccc1C` [Example 196, Methyl 5-{[6-chloro-5-(2′-chlorobiphenyl-4-yl)-1H-benzimidazol-2-yl]oxy}-2-methylbenzoate], the Emax was over 80%.

As to `COC(=O)c1cc(Oc2nc3cc(-c4ccc(-c5ccccc5OC)cc4)c(Cl)cc3[nH]2)ccc1C` [Example 197, Methyl 5-{[6-chloro-5-(2′-methoxybiphenyl-4-yl)-1H-benzimidazol-2-yl]oxy}-2-methylbenzoate], the Emax was over 80%. The same measure, in the same setting: the result for `COC(=O)c1cc(Oc2nc3cc(-c4ccc(-c5ccccc5C)cc4)c(Cl)cc3[nH]2)ccc1C` [Example 198, Methyl 5-{[6-chloro-5-(2′-methylbiphenyl-4-yl)-1H-benzimidazol-2-yl]oxy}-2-methylbenzoate] reads over 80%; that for `COc1ncccc1-c1ccc(-c2cc3nc(Oc4ccc(C)c(C(=O)O)c4)[nH]c3cc2Cl)cc1` [Example 199, 5-({6-chloro-5-[4-(2-methoxypyridin-3-yl)phenyl]-1-benzimidazol-2-yl}oxy)-2-methylbenzoic acid], over 80%. Consider `COc1ccc(-c2ccc(-c3cc4nc(Oc5ccc(C)c(C(=O)O)c5)[nH]c4cc3Cl)cc2)cn1` [Example 201, 5-({6-chloro-5-[4-(6-methoxypyridin-3-yl)phenyl]-1H-benzimidazol-2-yl}oxy)-2-methylbenzoic acid], for which the Emax is over 80%. Still for that read-out and setting: the result for `Cc1ccc(Oc2nc3cc(-c4ccc(-c5cn[nH]c5)cc4)c(Cl)cc3[nH]2)cc1C(=O)O` [Example 202, 5-({6-chloro-5-[4-(1H-pyrazol-4-yl)phenyl]-1H-benzimidazol-2-yl}oxy)-2-methylbenzoic acid] reads over 80%. As to `Cc1ccc(Oc2nc3cc(-c4ccc(-c5c(C)n[nH]c5C)cc4)c(Cl)cc3[nH]2)cc1C(=O)O` [Example 203, 5-({6-chloro-5-[4-(3,5-dimethyl-1H-pyrazol-4-yl)phenyl]-1H-benzimidazol-2-yl}oxy)-2-methylbenzoic acid], the Emax was over 80%.

In the case of `Cc1ccc(Oc2nc3cc(-c4ccc(-c5c(C)noc5C)cc4)c(Cl)cc3[nH]2)cc1C(=O)O` [Example 204, 5-({6-chloro-5-[4-(3,5-dimethylisoxazol-4-yl)phenyl]-1H-benzimidazol-2-yl}oxy)-2-methylbenzoic acid], the Emax was over 80%. Still for that read-out and setting: for `Cc1ccc(Oc2nc3cc(-c4ccc(-c5ccccc5N)cc4)c(Cl)cc3[nH]2)cc1C(=O)O` [Example 205, 5-{[5-(2′-aminobiphenyl-4-yl)-6-chloro-1H-benzimidazol-2-yl]oxy}-2-methylbenzoic acid] the value was over 80%; for `CC(=O)NS(=O)(=O)c1cccc(Oc2nc3cc(-c4ccc(-c5ccccc5)cc4)c(Cl)cc3[nH]2)c1` [Example 206, N-Acetyl-3-(5-biphenyl-4-yl-6-chloro-1H-benzoimidazol-2-yloxy)-benzenesulfonamide], over 80%. As to `Cc1ccc(Oc2nc3cc(-c4ccc(-c5ccccc5)cc4)ccc3[nH]2)cc1C(=O)O` [Example 207, 5-(5-Biphenyl-4-yl-1H-benzoimidazol-2-yloxy)-2-methyl-benzoic acid], the Emax was over 80%. Still for that read-out and setting: the result for `Cc1cc(C)c(C(=O)O)cc1Oc1nc2cc(-c3ccc(-c4ccccc4)cc3)c(Cl)cc2[nH]1` [Example 208, 5-(5-Biphenyl-4-yl-6-chloro-1H-benzoimidazol-2-yloxy)-2,4-dimethyl-benzoic acid] reads over 80%. For the compound `O=C(O)c1ccc(F)c(Oc2nc3cc(-c4ccc(-c5ccccc5)cc4)c(Cl)cc3[nH]2)c1` [Example 209, 3-(5-Biphenyl-4-yl-6-chloro-1H-benzoimidazol-2-yloxy)-4-fluoro-benzoic acid], the Emax was over 80%.

On to `O=C(O)c1ccc(Cl)c(Oc2nc3cc(-c4ccc(-c5ccccc5)cc4)c(Cl)cc3[nH]2)c1` [Example 210, 3-(5-Biphenyl-4-yl-6-chloro-1H-benzoimidazol-2-yloxy)-4-chloro-benzoic acid], for which the Emax was over 80%.

As to `COc1ccc(C(=O)O)cc1Oc1nc2cc(-c3ccc(-c4ccccc4)cc3)c(Cl)cc2[nH]1` [Example 211, 3-(5-Biphenyl-4-yl-6-chloro-1H-benzoimidazol-2-yloxy)-4-methoxy-benzoic acid], the Emax was over 80%. Still for that read-out and setting: for `CCc1ccc(Oc2nc3cc(-c4ccc(-c5ccccc5)cc4)c(Cl)cc3[nH]2)cc1C(=O)O` [Example 212, 5-(5-Biphenyl-4-yl-6-chloro-1H-benzoimidazol-2-yloxy)-2-ethyl-benzoic acid] the value was over 80%; for `Cc1cc(Oc2nc3cc(-c4ccc(-c5ccccc5)cc4)c(Cl)cc3[nH]2)c(C)c(C(=O)O)c1` [Example 213, 3-(5-Biphenyl-4-yl-6-chloro-1H-benzoimidazol-2-yloxy)-2,5-dimethyl-benzoic acid], over 80%.

Turning to `O=C(O)c1cccc(Oc2nc3cc(-c4ccc(-c5ccccc5)cc4)c(Cl)cc3[nH]2)n1` [Example 214, 6-(5-Biphenyl-4-yl-6-chloro-1H-benzoimidazol-2-yloxy)-pyridine-2-carboxylic acid], the Emax is over 80%.

As to `O=C(O)c1ccnc(Oc2nc3cc(-c4ccc(-c5ccccc5)cc4)c(Cl)cc3[nH]2)c1` [Example 215, 2-(5-Biphenyl-4-yl-6-chloro-1H-benzoimidazol-2-yloxy)-isonicotinic acid], the Emax was over 80%. Turning to `Cc1ccc(C(=O)O)cc1Oc1nc2cc(-c3ccc4c(ccn4C)c3)c(Cl)cc2[nH]1` [Example 216, 3-[6-Chloro-5-(1-methyl-1H-indol-5-yl)-1H-benzoimidazol-2-yloxy]-4-methyl-benzoic acid], the Emax was over 80%. On the same count and under the same terms, for `Cn1ccc2cc(-c3cc4nc(Oc5ccc(Cl)c(C(=O)O)c5)[nH]c4cc3Cl)ccc21` [Example 217, 2-Chloro-5-[6-chloro-5-(1-methyl-1H-indol-5-yl)-1H-benzoimidazol-2-yloxy]-benzoic acid] the value was over 80%; for `Cc1c(Oc2nc3cc(-c4ccc5c(ccn5C)c4)c(Cl)cc3[nH]2)cccc1C(=O)O` [Example 218, 3-[6-Chloro-5-(1-methyl-1H-indol-5-yl)-1H-benzoimidazol-2-yloxy]-2-methyl-benzoic acid], over 80%. On to `NS(=O)(=O)c1cccc(Oc2nc3cc(-c4ccc(-c5ccccc5)cc4)c(Cl)cc3[nH]2)c1` [Example 220, 3-(5-Biphenyl-4-yl-6-chloro-1H-benzoimidazol-2-yloxy)-benzenesulfonamide], for which the Emax was over 80%. The same measure, in the same setting: the result for `Cc1ccc(Oc2nc3cc(-c4ccc(-c5ccccc5)cc4)c(Cl)cc3[nH]2)cc1C(=O)NS(C)(=O)=O` [Example 221, N-[5-(5-Biphenyl-4-yl-6-chloro-1H-benzoimidazol-2-yloxy)-2-methyl-benzoyl]-methanesulfonamide] reads over 80%; that for `O=C(NS(=O)(=O)c1ccccc1)c1cccc(Oc2nc3cc(-c4ccc(-c5ccccc5)cc4)c(Cl)cc3[nH]2)c1` [Example 222, N-[3-(5-Biphenyl-4-yl-6-chloro-1H-benzoimidazol-2-yloxy)-benzoyl]-benzenesulfonamide], over 80%; that for `COC(=O)Cn1c(Oc2ccc(C)c(C(=O)OC)c2)nc2cc(-c3ccc(-c4ccccc4)cc3)c(Cl)cc21` [Example 223, 5-(5-Biphenyl-4-yl-6-chloro-1-methoxycarbonyl-methyl-1H-benzoimidazol-2-yloxy)-2-methyl-benzoic acid methyl ester], over 80%.

On to `Cc1ccc(Oc2nc3cc(-c4ccc(-c5ccccc5)cc4)c(Cl)cc3n2CC(=O)O)cc1C(=O)O` [Example 224, 5-(5-Biphenyl-1-yl-1-carboxymethyl-6-chloro-1H-benzoimidazol-2-yloxy)-2-methyl-benzoic acid], for which the Emax was over 80%. `CS(=O)(=O)NC(=O)c1cccc(Oc2nc3cc(-c4ccc(-c5ccccc5)cc4)c(Cl)cc3[nH]2)c1` [Example 225, N-[3-(5-Biphenyl-4-yl-6-chloro-1H-benzoimidazol-2-yloxy)-benzoyl]-methanesulfonamide]: the Emax is over 80%. The same measure, in the same setting: the result for `O=C(O)c1ccc(COc2nc3cc(-c4ccc(-c5ccccc5)cc4)c(Cl)cc3[nH]2)cc1` [Example 226, 4-(5-Biphenyl-4-yl-6-chloro-1H-benzoimidazol-2-yloxymethyl)-benzoic acid] reads over 80%. With `O=C(O)c1cc(COc2nc3cc(-c4ccc(-c5ccccc5)cc4)c(Cl)cc3[nH]2)cc(C(=O)O)c1` [Example 227, 5-(5-Biphenyl-4-yl-6-chloro-1H-benzoimidazol-2-yloxymethyl)-isophthalic acid], the Emax was over 80%. `Cc1ccc(Oc2nc3c(F)c(-c4ccc5c(ccn5C)c4)c(F)cc3[nH]2)cc1C(=O)O` [Example 228, 5-[4,6-Difluoro-5-(1-methyl-1H-indol-5-yl)-1H-benzoimidazol-2-yloxy]-2-methyl-benzoic acid]: the EC50 – broadly, the midpoint of the concentration-response curve – amounted to 2 nM. In the case of `Cc1ccc(Oc2nc3cc(-c4ccc5c(ccn5C)c4)c(Cl)cc3[nH]2)cc1C(=O)O` [Example 229, 5-{[6-chloro-5-(1-methyl-1H-indol-5-yl)-1H-benzimidazol-2-yl]oxy}-2-methylbenzoic acid], the half-maximal effective concentration (EC50) turned out to be 3 nM. On the same count and under the same terms, the result for `Cc1ccc(Oc2nc3cc(-c4ccc(C5CC5)cc4)c(Cl)cc3[nH]2)cc1C(=O)O` [Example 230, 5-{[6-chloro-5-(4-cyclopropylphenyl)-1H-benzimidazol-2-yl]oxy}-2-methylbenzoic acid] reads 9 nM; that for `Cc1ccc(Oc2nc3cc(-c4ccc(N5CCCC5)cc4)c(Cl)cc3[nH]2)cc1C(=O)O` [Example 231, 5-{[6-chloro-5-(4-pyrrolidin-1-ylphenyl)-1H-benzimidazol-2-yl]oxy}-2-methylbenzoic acid], 7 nM; that for `Cc1ccc(Oc2nc3cc(-c4ccc(-c5ccccc5O)cc4)c(F)cc3[nH]2)cc1C(=O)O` [Example 232, 5-{[6-fluoro-5-(2′-hydroxybiphenyl-4-yl)-1H-benzimidazol-2-yl]oxy}-2-methylbenzoic acid], 1 nM.
